Assay results published in ChEMBL document CHEMBL1201862, “PubChem BioAssay data set” (2004).
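Assay format: 96-well plates, 48-hour exposure. Here, GI50 denotes the concentration required for 50% inhibition of growth.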 Activity calls are given as the source filed them. No stated cut-off is given here; in the data, active = GI50 up to about 1.1 µM and inactive = higher.

Experiments:
Test in all cases: inhibition of tumour cell growth, NCI panel, 48 h
SNB-19 = test system: SNB-19
RPMI-8226 = test system: RPMI-8226
A498 = test system: A498
HCT-116 = test system: HCT-116
SK-MEL-28 = test system: SK-MEL-28
SNB-75 = test system: SNB-75
UACC-257 = test system: UACC-257
PC-3 = test system: PC-3
HL-60 = test system: HL-60
COLO 205 = test system: COLO 205
DU-145 = test system: DU-145
A549 = test system: A549
MDA-N = test system: MDA-N
M14 = test system: M14
SF-539 = test system: SF-539
HCT-15 = test system: HCT-15
MOLT-4 = test system: MOLT-4
NCI-H460 = test system: NCI-H460
HT-29 = test system: HT-29
EKVX = test system: EKVX

SMILES | GI50 (SNB-19) | GI50 (RPMI-8226) | GI50 (A498) | GI50 (HCT-116) | GI50 (SK-MEL-28) | GI50 (SNB-75) | GI50 (UACC-257) | GI50 (PC-3) | GI50 (HL-60) | GI50 (COLO 205) | GI50 (DU-145) | GI50 (A549) | GI50 (MDA-N) | GI50 (M14) | GI50 (SF-539) | GI50 (HCT-15) | GI50 (MOLT-4) | GI50 (NCI-H460) | GI50 (HT-29) | GI50 (EKVX)
CCCC/C=C1/CCC(CN(C)C)C1=O (configuration not stated) | 5.97 µM (inactive) | 0.0968 µM (active) | 8.77 µM (inactive) | 1.84 µM (inactive) | 1.92 µM (inactive) | 3.21 µM (inactive) | 2.17 µM (inactive) | 14.1 µM (inactive) | 0.885 µM (active) | 1.42 µM (inactive) | 15.6 µM (inactive) | 6.58 µM (inactive) | 2.42 µM (inactive) | 1.71 µM (inactive) | 2.48 µM (inactive) | 0.401 µM | – | – | – | –
CN(C)Cc1ccc(O)c(CN(C)C)n1 | > 100 µM (inactive) | > 100 µM (inactive) | > 100 µM (inactive) | > 100 µM (inactive) | > 100 µM (inactive) | > 100 µM (inactive) | > 100 µM (inactive) | > 100 µM (inactive) | – | > 100 µM (inactive) | > 100 µM (inactive) | > 100 µM (inactive) | > 100 µM (inactive) | > 100 µM (inactive) | > 100 µM (inactive) | > 100 µM | > 100 µM (inactive) | > 100 µM (inactive) | > 100 µM (inactive) | > 100 µM (inactive)
OCC1(CNc2cc(Cl)ncn2)CCC1 | – | > 100 µM (inactive) | > 100 µM (inactive) | > 100 µM (inactive) | > 100 µM (inactive) | > 100 µM (inactive) | > 100 µM (inactive) | > 100 µM (inactive) | > 100 µM (inactive) | > 100 µM (inactive) | > 100 µM (inactive) | > 100 µM (inactive) | > 100 µM (inactive) | – | > 100 µM (inactive) | > 100 µM | > 100 µM (inactive) | > 100 µM (inactive) | > 100 µM (inactive) | > 100 µM (inactive)
COC(=O)c1c(O)ccc2c1c1cc3ccccc3c(O)c1n2Cc1ccccc1Cl | 59.4 µM (inactive) | 20.4 µM (inactive) | > 100 µM (inactive) | 13.2 µM (inactive) | 14.5 µM (inactive) | – | 47.5 µM (inactive) | 30 µM (inactive) | 32.8 µM (inactive) | 16.8 µM (inactive) | 31.3 µM (inactive) | 23.5 µM (inactive) | 23.7 µM (inactive) | 23.4 µM (inactive) | 17.3 µM (inactive) | 19.2 µM | 16.6 µM (inactive) | 18.2 µM (inactive) | 11.7 µM (inactive) | 25.8 µM (inactive)
O=C(OCC1OC2OC(c3ccccc3)(n3ccc4c([N+](=O)[O-])ccnc43)OC2C1OC(=O)c1ccccc1)c1ccccc1 (configuration not stated) | > 100 µM (inactive) | > 100 µM (inactive) | > 100 µM (inactive) | > 100 µM (inactive) | > 100 µM (inactive) | – | > 100 µM (inactive) | > 100 µM (inactive) | > 100 µM (inactive) | – | > 100 µM (inactive) | > 100 µM (inactive) | > 100 µM (inactive) | > 100 µM (inactive) | – | > 100 µM | > 100 µM (inactive) | > 100 µM (inactive) | > 100 µM (inactive) | > 100 µM (inactive)
CCS(=O)(=O)c1c2cc(OC)ccc2nc2ccc(OC)cc12 | > 100 µM (inactive) | – | > 100 µM (inactive) | > 100 µM (inactive) | > 100 µM (inactive) | > 100 µM (inactive) | > 100 µM (inactive) | > 100 µM (inactive) | > 100 µM (inactive) | > 100 µM (inactive) | > 100 µM (inactive) | > 100 µM (inactive) | > 100 µM (inactive) | > 100 µM (inactive) | 26.5 µM (inactive) | > 100 µM | > 100 µM (inactive) | > 100 µM (inactive) | > 100 µM (inactive) | > 100 µM (inactive)
CC(=O)OC1=CC2=CC[C@H]3[C@@H]4CCC(=O)[C@@]4(C)CC(=O)[C@]3(S)[C@@]2(C)CC1 | 79.8 µM (inactive) | 20.9 µM (inactive) | 41.1 µM (inactive) | 21.7 µM (inactive) | 55 µM (inactive) | 40.5 µM (inactive) | 27.3 µM (inactive) | 32.9 µM (inactive) | – | 32.4 µM (inactive) | 62.5 µM (inactive) | 49.4 µM (inactive) | 31.7 µM (inactive) | 36.9 µM (inactive) | 20 µM (inactive) | 34.2 µM | 17.4 µM (inactive) | 25.2 µM (inactive) | > 100 µM (inactive) | > 100 µM (inactive)
COC(=O)C1(C(=O)OC)CC2=C(S(=O)(=O)c3ccccc3)C[C@H](C#N)[C@H]2C1 | 64.6 µM (inactive) | – | > 100 µM (inactive) | > 100 µM (inactive) | > 100 µM (inactive) | > 100 µM (inactive) | > 100 µM (inactive) | > 100 µM (inactive) | > 100 µM (inactive) | 68.5 µM (inactive) | > 100 µM (inactive) | > 100 µM (inactive) | 79.4 µM (inactive) | > 100 µM (inactive) | > 100 µM (inactive) | 40.6 µM | > 100 µM (inactive) | – | > 100 µM (inactive) | > 100 µM (inactive)
COCN(CCC1=CCCCC1)C(=O)OC | > 100 µM (inactive) | > 100 µM (inactive) | > 100 µM (inactive) | 41.4 µM (inactive) | > 100 µM (inactive) | > 100 µM (inactive) | > 100 µM (inactive) | > 100 µM (inactive) | – | > 100 µM (inactive) | 49.8 µM (inactive) | > 100 µM (inactive) | > 100 µM (inactive) | > 100 µM (inactive) | – | > 100 µM | > 100 µM (inactive) | 29.9 µM (inactive) | > 100 µM (inactive) | > 100 µM (inactive)
CCOC(=O)C(=[N+]=[N-])C(=O)C1(C(=O)OCC)CCN(C(=O)c2ccccc2)C1=O (configuration not stated) | > 100 µM (inactive) | – | > 100 µM (inactive) | > 100 µM (inactive) | – | > 100 µM (inactive) | > 100 µM (inactive) | > 100 µM (inactive) | > 100 µM (inactive) | > 100 µM (inactive) | > 100 µM (inactive) | > 100 µM (inactive) | > 100 µM (inactive) | > 100 µM (inactive) | > 100 µM (inactive) | > 100 µM | > 100 µM (inactive) | > 100 µM (inactive) | > 100 µM (inactive) | > 100 µM (inactive)
O=C1/C(=C/c2ccc(Cl)cc2)N=C(c2ccccc2)N1C1Nc2cc3c(cc2S1)NC(N1C(=O)/C(=C/c2ccc(Cl)cc2)N=C1c1ccccc1)S3 (configuration not stated) | – | 23.8 µM (inactive) | > 100 µM (inactive) | 35.9 µM (inactive) | > 100 µM (inactive) | – | > 100 µM (inactive) | 40.7 µM (inactive) | 0.336 µM (active) | – | 46.3 µM (inactive) | – | 45.2 µM (inactive) | > 100 µM (inactive) | > 100 µM (inactive) | 49 µM | 4.14 µM (inactive) | 30.4 µM (inactive) | 52.6 µM (inactive) | > 100 µM (inactive)
CNC(=O)Nc1cc2c3c(c1)CCCN3CCC2 | > 10 µM (inactive) | > 10 µM (inactive) | > 10 µM (inactive) | > 10 µM (inactive) | > 10 µM (inactive) | > 10 µM (inactive) | > 10 µM (inactive) | > 10 µM (inactive) | – | > 10 µM (inactive) | > 10 µM (inactive) | > 10 µM (inactive) | > 10 µM (inactive) | > 10 µM (inactive) | > 10 µM (inactive) | > 10 µM | – | > 10 µM (inactive) | > 10 µM (inactive) | > 10 µM (inactive)
Cc1nc(O)nc2nc3ccc(Cl)cc3c(N(CCO)CCO)c12 | > 100 µM (inactive) | 52.6 µM (inactive) | > 100 µM (inactive) | > 100 µM (inactive) | > 100 µM (inactive) | – | > 100 µM (inactive) | > 100 µM (inactive) | > 100 µM (inactive) | > 100 µM (inactive) | > 100 µM (inactive) | > 100 µM (inactive) | > 100 µM (inactive) | > 100 µM (inactive) | > 100 µM (inactive) | 94.4 µM | > 100 µM (inactive) | 48.2 µM (inactive) | > 100 µM (inactive) | 0.762 µM (active)
CCOC(=O)c1ccc(-c2cc(C)[nH]n2)[nH]1 | > 100 µM (inactive) | > 100 µM (inactive) | 50.4 µM (inactive) | > 100 µM (inactive) | > 100 µM (inactive) | > 100 µM (inactive) | > 100 µM (inactive) | > 100 µM (inactive) | 63.5 µM (inactive) | > 100 µM (inactive) | > 100 µM (inactive) | > 100 µM (inactive) | > 100 µM (inactive) | > 100 µM (inactive) | > 100 µM (inactive) | > 100 µM | – | > 100 µM (inactive) | > 100 µM (inactive) | 54.1 µM (inactive)
C/C=C1/CN2[C@@H](C3=C[C@@H]4[C@@H]5N(C3=O)c3ccccc3[C@@]53CCN5C/C(=C/C)[C@@H]4C[C@H]53)C[C@@]34c5ccccc5N5C(=O)CC=C([C@H]1C[C@H]23)[C@H]54 [ISOSUNGUCINE] | 7.52 µM (inactive) | – | 6.92 µM (inactive) | 2.94 µM (inactive) | 1.42 µM (inactive) | 7.91 µM (inactive) | 1.24 µM (inactive) | 2.7 µM (inactive) | 1.03 µM (active) | 1.81 µM (inactive) | 9.91 µM (inactive) | 7.66 µM (inactive) | 3.84 µM (inactive) | 1.18 µM (inactive) | 1.11 µM (active) | 2.33 µM | 1.46 µM (inactive) | 6.62 µM (inactive) | 2.11 µM (inactive) | 5.66 µM (inactive)
